From the supplement of paper PMC10307832

Compound: NC(=O)c1ccc(N(C(N)=O)c2c(F)cccc2F)nc1-c1ccc(F)cc1F [VX-702] + Cc1nc(NC(=O)N2CCC[C@H]2C(N)=O)sc1-c1ccnc(C(C)(C)C(F)(F)F)c1 [Alpelisib] (partner 2 µM)
Assay: relative viability (nuclei count vs DMSO), 5 days (fraction); higher = more cells survive
Conditions: first compound 0.02 µM
In short: (§1)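 Lung cancer cell lines, seeded in 1536-well plates, were treated the following day by pin tool with a single drug or with five library-drug doses (not always all listed) in √10 steps on top of a fixed anchor-drug dose. Cells were fixed and nuclei stained in one step after 5 days, and nuclei were counted. Relative viability is the nuclei count for treated wells divided by that for vehicle wells, reported as medians of duplicate plates.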

Cell Line	relative viability
NCI-H647	1.29
LOU-NH91	0.699
HCC-78	0.303
NCI-H1651	0.928
NCI-H1755	0.907
HOP-62	1.12
PC-14	1.05
A-427	0.997
NCI-H1355	0.778
HCC-15	0.844
LU99A	0.52
EKVX	0.814
NCI-H1437	0.943
RERF-LC-KJ	0.969
NCI-H1734	0.626
BEN	0.823

Same assay, conditions: first compound 0.2 µM

Cell Line	relative viability
NCI-H647	1
LOU-NH91	0.683
HCC-78	0.33
NCI-H1651	0.948
NCI-H1755	0.891
HOP-62	1.17
PC-14	0.912
A-427	0.99
NCI-H1355	0.807
HCC-15	0.777
LU99A	0.485
EKVX	0.801
NCI-H1437	0.858
RERF-LC-KJ	0.69
NCI-H1734	0.596
BEN	0.912

Same assay, conditions: first compound 0.6325 µM

Cell Line	relative viability
NCI-H647	1.08
LOU-NH91	0.702
HCC-78	0.287
NCI-H1651	0.882
NCI-H1755	0.925
HOP-62	1.06
PC-14	0.927
A-427	1.1
NCI-H1355	0.799
HCC-15	0.848
LU99A	0.48
EKVX	0.73
NCI-H1437	0.911
RERF-LC-KJ	0.8
NCI-H1734	0.588
BEN	0.919

Same assay, conditions: first compound 2 µM

Cell Line	relative viability
NCI-H647	1.14
LOU-NH91	0.562
HCC-78	0.32
NCI-H1651	1.16
NCI-H1755	1.01
HOP-62	1.19
PC-14	1.01
A-427	1.17
NCI-H1355	0.876
HCC-15	0.956
LU99A	0.467
EKVX	0.855
NCI-H1437	1.14
RERF-LC-KJ	0.794
NCI-H1734	0.559
BEN	1.18

Compound: CC(C)(C)c1nc(-c2cccc(NS(=O)(=O)c3c(F)cccc3F)c2F)c(-c2ccnc(N)n2)s1 [Dabrafenib] + NC(=O)Nc1cc(-c2cccc(F)c2)sc1C(=O)N[C@H]1CCCNC1 [AZD7762] (partner 0.2 µM)
Assay: as above
Conditions: first compound 0.003 µM
In short: as §1

Cell Line	relative viability
NCI-H1651	0.25
NCI-H1755	0.331
HOP-62	0.088
PC-14	0.0746
A-427	0.355
HCC-15	1.17
LU99A	0.55
NCI-H1437	1.09
RERF-LC-KJ	0.871

Same assay, conditions: first compound 0.009487 µM

Cell Line	relative viability
NCI-H647	0.437
LOU-NH91	0.768
HCC-78	0.683
NCI-H1651	0.466
NCI-H1755	0.446
HOP-62	0.449
PC-14	0.375
A-427	0.808
NCI-H1355	0.814
HCC-15	1.11
LU99A	0.401
EKVX	0.749
NCI-H1437	1.16
RERF-LC-KJ	1.01
NCI-H1734	0.587
BEN	0.769

Same assay, conditions: first compound 0.03 µM

Cell Line	relative viability
LOU-NH91	0.734
HCC-78	0.466
NCI-H1651	0.461
NCI-H1755	0.353
HOP-62	0.493
PC-14	0.363
A-427	0.636
NCI-H1355	0.669
HCC-15	1.09
LU99A	0.368
EKVX	0.588
NCI-H1437	1.19
RERF-LC-KJ	0.907
NCI-H1734	0.5

Same assay, conditions: first compound 0.09487 µM

Cell Line	relative viability
NCI-H647	0.32
LOU-NH91	0.725
HCC-78	0.563
NCI-H1651	0.43
NCI-H1755	0.435
HOP-62	0.424
PC-14	0.297
A-427	0.646
NCI-H1355	0.655
HCC-15	1.16
LU99A	0.352
EKVX	0.676
NCI-H1437	1.11
RERF-LC-KJ	0.916
NCI-H1734	0.452
BEN	0.81

Same assay, conditions: first compound 0.3 µM

Cell Line	relative viability
NCI-H647	0.43
LOU-NH91	0.827
HCC-78	0.872
NCI-H1651	0.451
NCI-H1755	0.471
HOP-62	0.452
PC-14	0.414
A-427	0.744
NCI-H1355	0.803
HCC-15	1.09
LU99A	0.261
EKVX	0.72
NCI-H1437	1.18
RERF-LC-KJ	1.35
NCI-H1734	0.378
BEN	0.852

Compound: CC(C)(C)c1nc(-c2cccc(NS(=O)(=O)c3c(F)cccc3F)c2F)c(-c2ccnc(N)n2)s1 [Dabrafenib] + Cc1cc(Nc2cc(N3CCN(C)CC3)nc(Sc3ccc(NC(=O)C4CC4)cc3)n2)n[nH]1 [Tozasertib] (partner 0.1 µM)
Assay: as above
Conditions: first compound 0.003 µM
In short: as §1

Cell Line	relative viability
NCI-H647	0.388
LOU-NH91	0.704
NCI-H1651	0.741
NCI-H1755	0.555
HOP-62	0.422
HCC-15	0.602
LU99A	0.258
EKVX	0.475
NCI-H1437	0.496
RERF-LC-KJ	0.484

Same assay, conditions: first compound 0.009487 µM

Cell Line	relative viability
NCI-H647	0.292
LOU-NH91	0.78
HCC-78	0.485
NCI-H1651	0.763
NCI-H1755	0.659
HOP-62	0.39
PC-14	0.631
A-427	0.202
NCI-H1355	0.677
HCC-15	0.506
LU99A	0.287
EKVX	0.406
NCI-H1437	0.385
RERF-LC-KJ	0.593
NCI-H1734	0.248
BEN	0.563

Same assay, conditions: first compound 0.03 µM

Cell Line	relative viability
NCI-H647	0.27
LOU-NH91	0.679
HCC-78	0.42
NCI-H1651	0.57
NCI-H1755	0.539
HOP-62	0.331
PC-14	0.647
A-427	0.187
NCI-H1355	0.519
HCC-15	0.355
LU99A	0.255
EKVX	0.407
NCI-H1437	0.412
RERF-LC-KJ	0.581
NCI-H1734	0.251

Same assay, conditions: first compound 0.09487 µM

Cell Line	relative viability
NCI-H647	0.298
LOU-NH91	0.698
HCC-78	0.387
NCI-H1651	0.668
NCI-H1755	0.559
HOP-62	0.362
PC-14	0.527
A-427	0.196
NCI-H1355	0.439
HCC-15	0.398
LU99A	0.277
EKVX	0.337
NCI-H1437	0.409
RERF-LC-KJ	0.456
NCI-H1734	0.312
BEN	0.412

Same assay, conditions: first compound 0.3 µM

Cell Line	relative viability
NCI-H647	0.434
LOU-NH91	0.761
HCC-78	0.54
NCI-H1651	0.679
NCI-H1755	0.614
HOP-62	0.399
PC-14	0.624
A-427	0.209
NCI-H1355	0.577
HCC-15	0.386
LU99A	0.306
EKVX	0.457
NCI-H1437	0.416
RERF-LC-KJ	0.591
NCI-H1734	0.271
BEN	0.501

Compound: CC(C)(C)c1nc(-c2cccc(NS(=O)(=O)c3c(F)cccc3F)c2F)c(-c2ccnc(N)n2)s1 [Dabrafenib] + COc1cc2c(Oc3ccc(NC(=O)C4(C(=O)Nc5ccc(F)cc5)CC4)cc3F)ccnc2cc1OCCCN1CCOCC1 [Foretinib] (partner 0.25 µM)
Assay: as above
Conditions: first compound 0.003 µM
In short: as §1

Cell Line	relative viability
NCI-H647	1.35
LOU-NH91	0.858
NCI-H1651	0.725
NCI-H1755	0.879
HOP-62	1.12
PC-14	0.861
HCC-15	0.944
LU99A	0.942
EKVX	0.457
NCI-H1437	1.26
RERF-LC-KJ	0.854

Same assay, conditions: first compound 0.009487 µM

Cell Line	relative viability
NCI-H647	1.16
LOU-NH91	1.01
HCC-78	0.633
NCI-H1651	0.728
NCI-H1755	0.894
HOP-62	1.1
PC-14	0.972
A-427	1.24
NCI-H1355	0.981
HCC-15	1.07
LU99A	0.702
EKVX	0.603
NCI-H1437	1.27
RERF-LC-KJ	0.859
NCI-H1734	0.963
BEN	0.699

Same assay, conditions: first compound 0.03 µM

Cell Line	relative viability
NCI-H647	1.01
LOU-NH91	0.894
HCC-78	0.537
NCI-H1651	0.631
NCI-H1755	0.767
HOP-62	1.16
PC-14	0.933
A-427	1.14
NCI-H1355	0.935
HCC-15	1.08
LU99A	0.715
EKVX	0.793
NCI-H1437	1.25
RERF-LC-KJ	0.845
NCI-H1734	0.73

Same assay, conditions: first compound 0.09487 µM

Cell Line	relative viability
NCI-H647	1.05
LOU-NH91	0.918
HCC-78	0.632
NCI-H1651	0.799
NCI-H1755	0.876
HOP-62	0.969
PC-14	0.979
A-427	0.87
NCI-H1355	0.809
HCC-15	0.852
LU99A	0.756
EKVX	0.886
NCI-H1437	1.23
RERF-LC-KJ	0.935
NCI-H1734	0.811
BEN	0.569

Same assay, conditions: first compound 0.3 µM

Cell Line	relative viability
NCI-H647	1.38
LOU-NH91	0.958
HCC-78	0.581
NCI-H1651	0.761
NCI-H1755	0.911
HOP-62	1.12
PC-14	0.958
A-427	1.01
NCI-H1355	0.947
HCC-15	1.03
LU99A	0.79
EKVX	0.987
NCI-H1437	1.26
RERF-LC-KJ	1.09
NCI-H1734	0.965
BEN	0.713
